Assay results published in patent US6525001B1, “Substituted pyrimidine and pyridine herbicides” (Mid-American Commercialization Corporation, priority 1997, dated 2003).

Assays:
Format in all cases: in vivo
Design in all cases: key: 0 is no effect; 10 is complete control
[1] = system: bedstraw (Galium aparine); assay: Test B pre-/postemergence
Method in brief: (§1)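 Compounds in a surfactant-containing, non-phytotoxic solvent blend are applied to freshly planted seed (preemergence) and, concurrently, to seedlings of 2 to 18 cm at 1–4 leaves (postemergence). Plants stay in the greenhouse twelve to sixteen days and are then scored visually from 0 (no effect) to 10 (complete control).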

[2] = system: corn (Zea mays); assay: Test B pre-/postemergence
Method in brief: as §1

[3] = system: crabgrass (Digitaria sanguinalis); assay: Test B pre-/postemergence
Method in brief: as §1

[4] = system: giant foxtail (Setaria faberii); assay: Test B pre-/postemergence
Method in brief: as §1

[5] = system: purple nutsedge (Cyperus rotundus); assay: Test B pre-/postemergence
Method in brief: as §1

[6] = system: rape (Brassica napus); assay: Test B pre-/postemergence
Method in brief: as §1

[7] = system: soybean (Glycine max); assay: Test B pre-/postemergence
Method in brief: as §1

[8] = system: sugar beet (Beta vulgaris); assay: Test B pre-/postemergence
Method in brief: as §1

[9] = system: velvetleaf (Abutilon theophrasti); assay: Test B pre-/postemergence
Method in brief: as §1

[10] = system: wheat (Triticum aestivum); assay: Test B pre-/postemergence
Method in brief: as §1

[11] = system: wild oat (Avena fatua); assay: Test B pre-/postemergence
Method in brief: as §1

[12] = system: bamyardgrass (Echinochloa crus-galli); assay: Test B flood test
Method in brief: (§2)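 Read-out is a visual response score from 0 (no effect) to 10 (complete control), assigned by comparison with untreated controls. Treatment was applied at the 2-leaf stage, and plants stayed in the greenhouse for twelve to sixteen days before scoring.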

[13] = system: duck salad (Heteranthera limosa); assay: Test B flood test
Method in brief: as §2

[14] = system: rice (Oryza sativa); assay: Test B flood test
Method in brief: as §2

[15] = system: smallflower flatsedge (Cyperus difformis); assay: Test B flood test
Method in brief: as §2

[16] = Rate 62 g/ha, Postemergence (flood test)
[17] = Rate 125 g/ha, Postemergence, flood test
[18] = Rate 250 g/ha, Postemergence (flood test species)
[19] = Rate 500 g/ha, Postemergence (flood test species)

In the case of Cc1cnc(-n2ccc(C(F)(F)F)n2)nc1Cc1cccc(C(F)(F)F)c1 [Example 2, 5-methyl-4-[[3-(trifluoromethyl)phenyl]methyl]-2-[3-(trifluoromethyl)-1H-pyrazol-1-yl]pyrimidine], the “Plant response rating, Bedstraw” value ([1]; Rate 62 g/ha, Postemergence) is reported as 9, the “Bedstraw plant response rating” value ([1]; Rate 62 g/ha, Preemergence) is reported as 10 and the “Plant response rating, Bedstraw” value ([1]; Rate 125 g/ha, Postemergence) is reported as 9. For the same compound, the “Bedstraw plant response rating” value ([1]; Rate 125 g/ha, Preemergence) was 10, the “Plant response rating, Bedstraw” value ([1]; Rate 250 g/ha, Postemergence) was 9 and the “Plant response rating, Bedstraw” value ([1]; Rate 250 g/ha, Preemergence) was 10. For the same compound, the “Plant response rating, Bedstraw” value ([1]; Rate 500 g/ha, Postemergence) was 9, the “Plant response rating, Bedstraw” value ([1]; Rate 500 g/ha, Preemergence) was 10 and the “Plant response rating, Corn” value ([2]; Rate 62 g/ha, Postemergence) was 2. The “Corn plant response rating” value ([2]; Rate 62 g/ha, Preemergence) was 0, the “Plant response rating, Corn” value ([2]; Rate 125 g/ha, Postemergence) was 4 and the “Corn plant response rating” value ([2]; Rate 125 g/ha, Preemergence) was 1. The “Plant response rating, Corn” value ([2]; Rate 250 g/ha, Postemergence) was 6, the “Plant response rating, Corn” value ([2]; Rate 250 g/ha, Preemergence) was 1 and the “Plant response rating, Corn” value ([2]; Rate 500 g/ha, Postemergence) was 7. The “Plant response rating, Corn” value ([2]; Rate 500 g/ha, Preemergence) was 2, the “Plant response rating, Crabgrass” value ([3]; Rate 62 g/ha, Postemergence) was 8 and the “Crabgrass plant response rating” value ([3]; Rate 62 g/ha, Preemergence) was 9. For the same compound, the “Plant response rating, Crabgrass” value ([3]; Rate 125 g/ha, Postemergence) was 9, the “Crabgrass plant response rating” value ([3]; Rate 125 g/ha, Preemergence) was 10 and the “Plant response rating, Crabgrass” value ([3]; Rate 250 g/ha, Postemergence) was 9. The “Plant response rating, Crabgrass” value ([3]; Rate 250 g/ha, Preemergence) was 10, the “Plant response rating, Crabgrass” value ([3]; Rate 500 g/ha, Postemergence) was 10 and the “Plant response rating, Crabgrass” value ([3]; Rate 500 g/ha, Preemergence) was 10. For the same compound, the “Plant response rating, Giant foxtail” value ([4]; Rate 62 g/ha, Postemergence) was 7, the “Giant foxtail plant response rating” value ([4]; Rate 62 g/ha, Preemergence) was 10 and the “Plant response rating, Giant foxtail” value ([4]; Rate 125 g/ha, Postemergence) was 9. The “Giant foxtail plant response rating” value ([4]; Rate 125 g/ha, Preemergence) was 10, the “Plant response rating, Giant foxtail” value ([4]; Rate 250 g/ha, Postemergence) was 9 and the “Plant response rating, Giant foxtail” value ([4]; Rate 250 g/ha, Preemergence) was 10. For the same compound, the “Plant response rating, Giant foxtail” value ([4]; Rate 500 g/ha, Postemergence) was 10, the “Plant response rating, Giant foxtail” value ([4]; Rate 500 g/ha, Preemergence) was 10 and the “Plant response rating, Nutsedge” value ([5]; Rate 62 g/ha, Postemergence) was 0. For the same compound, the “Nutsedge plant response rating” value ([5]; Rate 62 g/ha, Preemergence) was 0, the “Plant response rating, Nutsedge” value ([5]; Rate 125 g/ha, Postemergence) was 0 and the “Nutsedge plant response rating” value ([5]; Rate 125 g/ha, Preemergence) was 0. For the same compound, the “Plant response rating, Nutsedge” value ([5]; Rate 250 g/ha, Preemergence) was 0, the “Plant response rating, Nutsedge” value ([5]; Rate 500 g/ha, Postemergence) was 2 and the “Plant response rating, Nutsedge” value ([5]; Rate 500 g/ha, Preemergence) was 0. For the same compound, the “Plant response rating, Rape” value ([6]; Rate 62 g/ha, Postemergence) was 9, the “Rape plant response rating” value ([6]; Rate 62 g/ha, Preemergence) was 10 and the “Plant response rating, Rape” value ([6]; Rate 125 g/ha, Postemergence) was 9. The “Rape plant response rating” value ([6]; Rate 125 g/ha, Preemergence) was 10, the “Plant response rating, Rape” value ([6]; Rate 250 g/ha, Postemergence) was 9 and the “Plant response rating, Rape” value ([6]; Rate 250 g/ha, Preemergence) was 10. For the same compound, the “Plant response rating, Rape” value ([6]; Rate 500 g/ha, Postemergence) was 10, the “Plant response rating, Rape” value ([6]; Rate 500 g/ha, Preemergence) was 10 and the “Plant response rating, Soybean” value ([7]; Rate 62 g/ha, Postemergence) was 6. For the same compound, the “Soybean plant response rating” value ([7]; Rate 62 g/ha, Preemergence) was 0, the “Plant response rating, Soybean” value ([7]; Rate 125 g/ha, Postemergence) was 7 and the “Soybean plant response rating” value ([7]; Rate 125 g/ha, Preemergence) was 1. For the same compound, the “Plant response rating, Soybean” value ([7]; Rate 250 g/ha, Postemergence) was 8, the “Plant response rating, Soybean” value ([7]; Rate 250 g/ha, Preemergence) was 2 and the “Plant response rating, Soybean” value ([7]; Rate 500 g/ha, Postemergence) was 8. For the same compound, the “Plant response rating, Soybean” value ([7]; Rate 500 g/ha, Preemergence) was 5, the “Plant response rating, Sugarbeets” value ([8]; Rate 62 g/ha, Postemergence) was 9 and the “Sugarbeets plant response rating” value ([8]; Rate 62 g/ha, Preemergence) was 10. The “Plant response rating, Sugarbeets” value ([8]; Rate 125 g/ha, Postemergence) was 9, the “Sugarbeets plant response rating” value ([8]; Rate 125 g/ha, Preemergence) was 10 and the “Plant response rating, Sugarbeets” value ([8]; Rate 250 g/ha, Postemergence) was 9. For the same compound, the “Plant response rating, Sugarbeets” value ([8]; Rate 250 g/ha, Preemergence) was 10, the “Plant response rating, Sugarbeets” value ([8]; Rate 500 g/ha, Postemergence) was 9 and the “Plant response rating, Sugarbeets” value ([8]; Rate 500 g/ha, Preemergence) was 10. For the same compound, the “Plant response rating, Velvetleaf” value ([9]; Rate 62 g/ha, Postemergence) was 8, the “Velvetleaf plant response rating” value ([9]; Rate 62 g/ha, Preemergence) was 6 and the “Plant response rating, Velvetleaf” value ([9]; Rate 125 g/ha, Postemergence) was 9. The “Velvetleaf plant response rating” value ([9]; Rate 125 g/ha, Preemergence) was 6, the “Plant response rating, Velvetleaf” value ([9]; Rate 250 g/ha, Postemergence) was 9 and the “Plant response rating, Velvetleaf” value ([9]; Rate 250 g/ha, Preemergence) was 8. For the same compound, the “Plant response rating, Velvetleaf” value ([9]; Rate 500 g/ha, Postemergence) was 9, the “Plant response rating, Velvetleaf” value ([9]; Rate 500 g/ha, Preemergence) was 10 and the “Plant response rating, Wheat” value ([10]; Rate 62 g/ha, Postemergence) was 2. For the same compound, the “Wheat plant response rating” value ([10]; Rate 62 g/ha, Preemergence) was 1, the “Plant response rating, Wheat” value ([10]; Rate 125 g/ha, Postemergence) was 2 and the “Wheat plant response rating” value ([10]; Rate 125 g/ha, Preemergence) was 2. The “Plant response rating, Wheat” value ([10]; Rate 250 g/ha, Postemergence) was 3, the “Plant response rating, Wheat” value ([10]; Rate 250 g/ha, Preemergence) was 3 and the “Plant response rating, Wheat” value ([10]; Rate 500 g/ha, Postemergence) was 5. For the same compound, the “Plant response rating, Wheat” value ([10]; Rate 500 g/ha, Preemergence) was 3, the “Plant response rating, Wild oats” value ([11]; Rate 62 g/ha, Postemergence) was 3 and the “Wild oats plant response rating” value ([11]; Rate 62 g/ha, Preemergence) was 6. For the same compound, the “Plant response rating, Wild oats” value ([11]; Rate 125 g/ha, Postemergence) was 3, the “Wild oats plant response rating” value ([11]; Rate 125 g/ha, Preemergence) was 9 and the “Plant response rating, Wild oats” value ([11]; Rate 250 g/ha, Postemergence) was 6. For the same compound, the “Plant response rating, Wild oats” value ([11]; Rate 250 g/ha, Preemergence) was 9, the “Plant response rating, Wild oats” value ([11]; Rate 500 g/ha, Postemergence) was 7 and the “Plant response rating, Wild oats” value ([11]; Rate 500 g/ha, Preemergence) was 10. For the same compound, the “Plant response rating, Barnyardgrass” value [12, 16] was 3, the “Plant response rating, Barnyardgrass” value [12, 17] was 4 and the “Plant response rating, Barnyardgrass” value [12, 18] was 5. The “Plant response rating, Barnyardgrass” value [12, 19] was 6, the “Plant response rating, Ducksalad” value [13, 16] was 0 and the “Plant response rating, Ducksalad” value [13, 17] was 0. For the same compound, the “Plant response rating, Ducksalad” value [13, 18] was 2, the “Plant response rating, Ducksalad” value [13, 19] was 2 and the “Plant response rating, Rice” value [14, 16] was 3. For the same compound, the “Plant response rating, Rice” value [14, 17] was 4, the “Plant response rating, Rice” value [14, 18] was 5 and the “Plant response rating, Rice” value [14, 19] was 6. The “Plant response rating, S. Flatsedge” value [15, 16] was 3, the “Plant response rating, S. Flatsedge” value [15, 17] was 5 and the “Plant response rating, S. Flatsedge” value [15, 18] was 8. The “Plant response rating, S. Flatsedge” value [15, 19] was 9.
